Test results: ChEMBL document CHEMBL3885861, “Open TG-GATES”

Species: Rattus norvegicus
Experiment: Open TG-GATES - Regimen: Single
Format: toxicity, organism-based, Sprague-Dawley
Set-up: regimen Single, gender Male, age 6 weeks
Details: in vivo, po, 0 mg/kg, route gavage, dose level Control; for APTT / Bas / Eos / Fbg / Hb / Ht / Lym / MCH / MCHC / MCV / Mono / Neu / PT / Plat / RBC / Ret / WBC: tissue Blood; for KIDNEY_L / KIDNEY_R / KIDNEY_TOTAL: tissue Kidney; for LIVER: tissue Liver; for A/G / ALP / ALT / AST / BUN / CRE / Ca / Cl / DBIL / GLC / IP / K / LDH / Na / PL / RALB / TBIL / TC / TG / TP / gamma-GTP: tissue Plasma

CCN(CC)N=O [N-NITROSODIETHYLAMINE]
TERMINAL_BW (3 h): 221 g
APTT (3 h): 19.6 s
Bas (3 h): 0.4%
Eos (3 h): 1%
Fbg (3 h): 223 mg/dL
Hb (3 h): 13.7 g/dL
Ht (3 h): 40%
Lym (3 h): 77.8%
MCH (3 h): 21.5 pg
MCHC (3 h): 34.1%
MCV (3 h): 63 fL
Mono (3 h): 2.2%
Neu (3 h): 18%
PT (3 h): 12 s
Plat (3 h): 127.6 x10_4/uL
RBC (3 h): 635.6 x10_4/ul
Ret (3 h): 7.2%
WBC (3 h): 66.1 x10_2/uL
KIDNEY_L (3 h): 1 g
KIDNEY_R (3 h): 0.9 g
KIDNEY_TOTAL (3 h): 1.9 g
LIVER (3 h): 9.5 g
A/G (3 h): 1.6
ALP (3 h): 1051 IU/L
ALT (3 h): 37.4 IU/L
AST (3 h): 68.4 IU/L
BUN (3 h): 10 mg/dL
CRE (3 h): 0.4 mg/dL
Ca (3 h): 10.3 mg/dL
Cl (3 h): 102 meq/L
DBIL (3 h): 0.07 mg/dL
GLC (3 h): 194.2 mg/dL
IP (3 h): 9 mg/dL
K (3 h): 3.5 meq/L
LDH (3 h): 169.8 IU/L
Na (3 h): 140.8 meq/L
PL (3 h): 132.8 mg/dL
RALB (3 h): 3.4 g/dL
TBIL (3 h): 0.1 mg/dL
TC (3 h): 79.4 mg/dL
TG (3 h): 42.4 mg/dL
TP (3 h): 5.5 g/dL
gamma-GTP (3 h): 1 IU/L
TERMINAL_BW (6 h): 223.5 g
APTT (6 h): 20.6 s
Bas (6 h): 0.2%
Eos (6 h): 1%
Fbg (6 h): 218 mg/dL
Hb (6 h): 13.5 g/dL
Ht (6 h): 39.5%
Lym (6 h): 79.6%
MCH (6 h): 21.4 pg
MCHC (6 h): 34.3%
MCV (6 h): 62.5 fL
Mono (6 h): 2.4%
Neu (6 h): 16%
PT (6 h): 12 s
Plat (6 h): 130.4 x10_4/uL
RBC (6 h): 631.8 x10_4/ul
Ret (6 h): 6.9%
WBC (6 h): 81.9 x10_2/uL
KIDNEY_L (6 h): 1 g
KIDNEY_R (6 h): 1 g
KIDNEY_TOTAL (6 h): 2 g
LIVER (6 h): 9.9 g
A/G (6 h): 1.6
ALP (6 h): 946.2 IU/L
ALT (6 h): 34.2 IU/L
AST (6 h): 72.4 IU/L
BUN (6 h): 13.6 mg/dL
CRE (6 h): 0.4 mg/dL
Ca (6 h): 10.3 mg/dL
Cl (6 h): 102.8 meq/L
DBIL (6 h): 0.076 mg/dL
GLC (6 h): 201.2 mg/dL
IP (6 h): 7.8 mg/dL
K (6 h): 3.6 meq/L
LDH (6 h): 193 IU/L
Na (6 h): 140.8 meq/L
PL (6 h): 141.6 mg/dL
RALB (6 h): 3.4 g/dL
TBIL (6 h): 0.1 mg/dL
TC (6 h): 82.2 mg/dL
TG (6 h): 54.4 mg/dL
TP (6 h): 5.5 g/dL
gamma-GTP (6 h): 1.4 IU/L
TERMINAL_BW (9 h): 228.4 g
APTT (9 h): 18.5 s
Bas (9 h): 0.8%
Eos (9 h): 1.2%
Fbg (9 h): 230.8 mg/dL
Hb (9 h): 13.7 g/dL
Ht (9 h): 39.7%
Lym (9 h): 75.4%
MCH (9 h): 21.6 pg
MCHC (9 h): 34.5%
MCV (9 h): 62.5 fL
Mono (9 h): 2.6%
Neu (9 h): 19.2%
PT (9 h): 12 s
Plat (9 h): 125.1 x10_4/uL
RBC (9 h): 636 x10_4/ul
Ret (9 h): 7.1%
WBC (9 h): 92.6 x10_2/uL
KIDNEY_L (9 h): 1 g
KIDNEY_R (9 h): 1 g
KIDNEY_TOTAL (9 h): 1.9 g
LIVER (9 h): 10.1 g
A/G (9 h): 1.6
ALP (9 h): 875.4 IU/L
ALT (9 h): 37.8 IU/L
AST (9 h): 69 IU/L
BUN (9 h): 13.8 mg/dL
CRE (9 h): 0.4 mg/dL
Ca (9 h): 10.4 mg/dL
Cl (9 h): 103 meq/L
DBIL (9 h): 0.08 mg/dL
GLC (9 h): 206.4 mg/dL
IP (9 h): 8 mg/dL
K (9 h): 3.8 meq/L
LDH (9 h): 196.4 IU/L
Na (9 h): 140.6 meq/L
PL (9 h): 141.6 mg/dL
RALB (9 h): 3.4 g/dL
TBIL (9 h): 0.1 mg/dL
TC (9 h): 84.2 mg/dL
TG (9 h): 56.8 mg/dL
TP (9 h): 5.6 g/dL
gamma-GTP (9 h): 1.4 IU/L
TERMINAL_BW (24 h): 229.8 g
APTT (24 h): 18.9 s
Bas (24 h): 0%
Eos (24 h): 1.2%
Fbg (24 h): 226.2 mg/dL
Hb (24 h): 13.5 g/dL
Ht (24 h): 39.6%
Lym (24 h): 82.6%
MCH (24 h): 21.5 pg
MCHC (24 h): 34.1%
MCV (24 h): 63.2 fL
Mono (24 h): 1.8%
Neu (24 h): 13.8%
PT (24 h): 11.7 s
Plat (24 h): 128.8 x10_4/uL
RBC (24 h): 627.2 x10_4/ul
Ret (24 h): 6.6%
WBC (24 h): 85.1 x10_2/uL
KIDNEY_L (24 h): 1.1 g
KIDNEY_R (24 h): 1 g
KIDNEY_TOTAL (24 h): 2.1 g
LIVER (24 h): 10.2 g
A/G (24 h): 1.6
ALP (24 h): 1035 IU/L
ALT (24 h): 37.8 IU/L
AST (24 h): 63.6 IU/L
BUN (24 h): 14 mg/dL
CRE (24 h): 0.4 mg/dL
Ca (24 h): 10.5 mg/dL
Cl (24 h): 103.6 meq/L
DBIL (24 h): 0.07 mg/dL
GLC (24 h): 208 mg/dL
IP (24 h): 9.5 mg/dL
K (24 h): 3.7 meq/L
LDH (24 h): 190.6 IU/L
Na (24 h): 141 meq/L
PL (24 h): 150.6 mg/dL
RALB (24 h): 3.3 g/dL
TBIL (24 h): 0.1 mg/dL
TC (24 h): 86.6 mg/dL
TG (24 h): 57.8 mg/dL
TP (24 h): 5.4 g/dL
gamma-GTP (24 h): 1 IU/L
